Test results as given in PubChem BioAssay AID1963440 (Molecular Pharmacology Branch, DTP, NCI, 2024).

Tested on: NCI-H1417 complex spheroids, growth % test/control
Assay: Anticancer human tumor NCI-H1417 cell line growth inhibition [Asc];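 note: spheroids exposed to compounds for 7 days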;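 for viability, T/C: 100% = DMSO vehicle control wells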
Details: for IC50: curve of first compound; for viability, T/C: stronger effect = lower value
Experimental: Multicellular complex tumor spheroid response to apoptosis pathway targeting inhibitors Alrizomadlin, Pelcitoclax, and Dasminapant in combination with a variety of drugs and investigational agents in selected tumor cell lines
The MDM2 inhibitor alrizomadlin, the Bcl-2/Bcl-xL inhibitor pelcitoclax, and the IAPs inhibitor dasminapant were evaluated both individually and in combination with standard of care and investigational anticancer small molecules within a complex spheroid model of solid tumors. . Complex spheroids include a stromal component modeled by human endothelial cells (HUVEC) and fibroblasts modeled by human mesenchymal stem cells (MSCs). The concentration ranges selected for each drug and investigational agent were based upon clinically achievable concentrations if the clinical Cmax of the agent was known.
Compounds. The drugs and investigational agents: alrizomadlin (APG-115; NSC831270), pelcitoclax (APG-1252; NSC835773), dasminapant (APG-1387;NSC834197), TAK-243 (NSC785004), copanlisib (NSC809693), olaparib (NSC753686), talazoparib (NSC767125), cobimetinib (NSC 768068), eltanexor (KPT-8602, NSC 794443), abemaciclib (NSC 768073), sotorasib (NSC818433), adagrasib (NSC 831453), MRTX-1133 (NSC 836407), Iadademestat (ORY1001, NSC 806812), and RMC-4630 (NSC839698), were obtained from the NCI Developmental Therapeutics Program Chemical Repository. The FDA-approved anticancer drug set is available from the Developmental Therapeutics Program at https://dtp.cancer.gov/organization/dscb/obtaining/available plates.htm. […] The stock solutions were prepared in dimethyl sulfoxide (DMSO, Sigma-Aldrich, St. Louis, MO, cat. D2650) at 800-fold the tested concentration and stored at -70 degrees C prior to their use. All drugs and investigational agents were tested over a range starting from a high concentration at or near the clinical Cmax and decreasing in half-log increments. If the clinical Cmax for an agent had not been determined, the highest concentration tested was 10 microM.
The patient-derived cancer (PDC) cell lines include five colon adenocarcinomas: 186277-243-T-J2-PDC, 616215-338-R-J1-PDC, 439559-082-T-J2-PDC, 463943-066-T-J2-PDC, and 519858-162-T-J1-PDC; three pancreatic carcinomas: 323965-272-R-J2-PDC, 521955-158-R6-J3-PDC, and 521955-158-R2-J5-PDC; two uterine sarcomas: 327498-152-R-J2-PDC and 993429-296-R-J1-PDC; two rhabdomyosarcomas: 755483-174-R-J1-PDC and 772245-204-R-J1-PDC; two soft tissue sarcomas: 126254-015-R-J1-PDC and 494315-158-R-J1-PDC; two malignant fibrous histiocytomas: 317291-083-R-J1-PDC and 596521-263-R-J1-PDC; two breast carcinomas: 171881-019-R-J1-PDC and 885512-296-R-J2-PDC; and one ovarian carcinoma: 6556581-035-R-J-PDC were obtained from the NCI PDMR, (https://pdmr.cancer.gov). The established cell lines HSSY-2 synovial sarcoma (RRID:CVCL 8719), SYO-1 synovial sarcoma (RRID:CVCL_7146), MPNST malignant peripheral neural sheath tumor were obtained from the Sloan Kettering Institute. The following established cell lines were purchased from the American Type Culture Collection (ATCC, Manassas, VA), Sor the received from the NCI repository:, PANC-1 pancreatic carcinoma (CRL-1469, RRID:CVCL_0480), OVCAR-5 ovarian carcinoma (RRID:CVCL_1628), OVCAR-8 ovarian carcinoma (RRID:CVCL_1629), , MCF-7 breast carcinoma (CRL-12584, RRID:CVCL_0031), MDA-MB-231 breast carcinoma (CRL-12532, RRID:CVCL_0062), NCI-H1876 small cell lung carcinoma (CRL-5902, RRID:CVCL_1503), NCI-H510A small cell lung carcinoma (HTB-184, RRID:CVCL_1565), NCI-H1417 (CRL-5869, RRID:CVCL_1469), and NCI-H196 small cell lung carcinoma (CRL-5823, RRID:CVCL_1509). Dr. Peter Houghton (Greehey Children's Cancer Research Institute, University of Texas Health Science Center, San Antonio, TX) provided Rh-18 rhabdomyosarcoma (RRID:CVCL_1659). Pooled donor human umbilical vein endothelial cells (HUVEC, Lonza, cat. CC-2519) and human mesenchymal stem cells (hMSC, Lonza, cat. PT-2501) were purchased from Lonza (Walkersville, MD).
Cell Culture. […]

[1] = second compound 0.03 µM, first compound 0.00316 µM
[2] = second compound 0.03 µM, first compound 0.01 µM
[3] = second compound 0.03 µM, first compound 0.0316 µM
[4] = second compound 0.03 µM, first compound 0.1 µM
[5] = second compound 0.0949 µM, first compound 0.00316 µM
[6] = second compound 0.0949 µM, first compound 0.01 µM
[7] = second compound 0.0949 µM, first compound 0.0316 µM
[8] = second compound 0.0949 µM, first compound 0.1 µM
[9] = second compound 0.3 µM, first compound 0.00316 µM
[10] = second compound 0.3 µM, first compound 0.01 µM
[11] = second compound 0.3 µM, first compound 0.0316 µM
[12] = second compound 0.3 µM, first compound 0.1 µM
[13] = second compound 0.949 µM, first compound 0.00316 µM
[14] = second compound 0.949 µM, first compound 0.01 µM
[15] = second compound 0.949 µM, first compound 0.0316 µM
[16] = second compound 0.949 µM, first compound 0.1 µM
[17] = second compound 3 µM, first compound 0.00316 µM
[18] = second compound 3 µM, first compound 0.01 µM
[19] = second compound 3 µM, first compound 0.0316 µM
[20] = second compound 3 µM, first compound 0.1 µM

## CCN1CCN(Cc2ccc(Nc3ncc(F)c(-c4cc(F)c5nc(C)n(C(C)C)c5c4)n3)nc2)CC1 + CCN1C(C(=O)NC23CCC(C(=O)O)(CC2)CC3)C(c2cccc(Cl)c2F)C2(C(=O)Nc3cc(Cl)ccc32)C12CCCCC2
Second compound 0.03 µM
  IC50: > 1000 nM
Second compound 0.0949 µM
  IC50: > 1000 nM
Second compound 0.3 µM
  IC50: > 1000 nM
Second compound 0.949 µM
  IC50: > 1000 nM
Second compound 3 µM
  IC50: > 1000 nM
[1]
  viability, T/C: 108%
[2]
  viability, T/C: 110%
[3]
  viability, T/C: 93.6%
[4]
  viability, T/C: 93.8%
Second compound 0.03 µM, first compound 0.316 µM
  viability, T/C: 97.8%
Second compound 0.03 µM, first compound 1 µM
  viability, T/C: 83%
[5]
  viability, T/C: 103%
[6]
  viability, T/C: 104%
[7]
  viability, T/C: 92.7%
[8]
  viability, T/C: 98.2%
Second compound 0.0949 µM, first compound 0.316 µM
  viability, T/C: 94%
Second compound 0.0949 µM, first compound 1 µM
  viability, T/C: 91.5%
[9]
  viability, T/C: 103%
[10]
  viability, T/C: 100%
[11]
  viability, T/C: 110%
[12]
  viability, T/C: 102%
Second compound 0.3 µM, first compound 0.316 µM
  viability, T/C: 95.7%
Second compound 0.3 µM, first compound 1 µM
  viability, T/C: 81.2%
[13]
  viability, T/C: 87.2%
[14]
  viability, T/C: 93.1%
[15]
  viability, T/C: 88.2%
[16]
  viability, T/C: 91.1%
Second compound 0.949 µM, first compound 0.316 µM
  viability, T/C: 88.8%
Second compound 0.949 µM, first compound 1 µM
  viability, T/C: 78.4%
[17]
  viability, T/C: 99.5%
[18]
  viability, T/C: 91.1%
[19]
  viability, T/C: 98.8%
[20]
  viability, T/C: 91.4%
Second compound 3 µM, first compound 0.316 µM
  viability, T/C: 83.8%
Second compound 3 µM, first compound 1 µM
  viability, T/C: 75.1%

## NC(=O)C(=Cn1cnc(-c2cc(C(F)(F)F)cc(C(F)(F)F)c2)n1)c1cncnc1 + CCN1C(C(=O)NC23CCC(C(=O)O)(CC2)CC3)C(c2cccc(Cl)c2F)C2(C(=O)Nc3cc(Cl)ccc32)C12CCCCC2
Second compound 0.03 µM
  IC50: 128 nM
Second compound 0.0949 µM
  IC50: 104 nM
Second compound 0.3 µM
  IC50: 100 nM
Second compound 0.949 µM
  IC50: 102 nM
Second compound 3 µM
  IC50: 59.1 nM
Second compound 0.03 µM, first compound 0.000949 µM
  viability, T/C: 95.9%
Second compound 0.03 µM, first compound 0.003 µM
  viability, T/C: 112%
Second compound 0.03 µM, first compound 0.00949 µM
  viability, T/C: 93.5%
Second compound 0.03 µM, first compound 0.03 µM
  viability, T/C: 96%
Second compound 0.03 µM, first compound 0.0949 µM
  viability, T/C: 59.7%
Second compound 0.03 µM, first compound 0.3 µM
  viability, T/C: 21.9%
Second compound 0.0949 µM, first compound 0.000949 µM
  viability, T/C: 96.7%
Second compound 0.0949 µM, first compound 0.003 µM
  viability, T/C: 101%
Second compound 0.0949 µM, first compound 0.00949 µM
  viability, T/C: 97.2%
Second compound 0.0949 µM, first compound 0.03 µM
  viability, T/C: 87%
Second compound 0.0949 µM, first compound 0.0949 µM
  viability, T/C: 52.9%
Second compound 0.0949 µM, first compound 0.3 µM
  viability, T/C: 18.9%
Second compound 0.3 µM, first compound 0.000949 µM
  viability, T/C: 97.7%
Second compound 0.3 µM, first compound 0.003 µM
  viability, T/C: 97%
Second compound 0.3 µM, first compound 0.00949 µM
  viability, T/C: 96.2%
Second compound 0.3 µM, first compound 0.03 µM
  viability, T/C: 87.3%
Second compound 0.3 µM, first compound 0.0949 µM
  viability, T/C: 51.6%
Second compound 0.3 µM, first compound 0.3 µM
  viability, T/C: 19.1%
Second compound 0.949 µM, first compound 0.000949 µM
  viability, T/C: 93.6%
Second compound 0.949 µM, first compound 0.003 µM
  viability, T/C: 96.3%
Second compound 0.949 µM, first compound 0.00949 µM
  viability, T/C: 85.1%
Second compound 0.949 µM, first compound 0.03 µM
  viability, T/C: 73.9%
Second compound 0.949 µM, first compound 0.0949 µM
  viability, T/C: 52.6%
Second compound 0.949 µM, first compound 0.3 µM
  viability, T/C: 18.8%
Second compound 3 µM, first compound 0.000949 µM
  viability, T/C: 97.5%
Second compound 3 µM, first compound 0.003 µM
  viability, T/C: 98.8%
Second compound 3 µM, first compound 0.00949 µM
  viability, T/C: 81.3%
Second compound 3 µM, first compound 0.03 µM
  viability, T/C: 67.9%
Second compound 3 µM, first compound 0.0949 µM
  viability, T/C: 38.1%
Second compound 3 µM, first compound 0.3 µM
  viability, T/C: 16.3%

## NC1CCC(NC2CC2c2ccccc2)CC1 (stereo not given) + CCN1C(C(=O)NC23CCC(C(=O)O)(CC2)CC3)C(c2cccc(Cl)c2F)C2(C(=O)Nc3cc(Cl)ccc32)C12CCCCC2
Second compound 0.03 µM
  IC50: > 100 nM
Second compound 0.0949 µM
  IC50: > 100 nM
Second compound 0.3 µM
  IC50: > 100 nM
Second compound 0.949 µM
  IC50: > 100 nM
Second compound 3 µM
  IC50: > 100 nM
Second compound 0.03 µM, first compound 0.000316 µM
  viability, T/C: 86%
Second compound 0.03 µM, first compound 0.001 µM
  viability, T/C: 73.9%
[1]
  viability, T/C: 74.5%
[2]
  viability, T/C: 71.3%
[3]
  viability, T/C: 78.6%
[4]
  viability, T/C: 73.1%
Second compound 0.0949 µM, first compound 0.000316 µM
  viability, T/C: 80.5%
Second compound 0.0949 µM, first compound 0.001 µM
  viability, T/C: 78.3%
[5]
  viability, T/C: 63.5%
[6]
  viability, T/C: 69.8%
[7]
  viability, T/C: 73.1%
[8]
  viability, T/C: 66%
Second compound 0.3 µM, first compound 0.000316 µM
  viability, T/C: 79.7%
Second compound 0.3 µM, first compound 0.001 µM
  viability, T/C: 64.8%
[9]
  viability, T/C: 65%
[10]
  viability, T/C: 61%
[11]
  viability, T/C: 63.8%
[12]
  viability, T/C: 62.5%
Second compound 0.949 µM, first compound 0.000316 µM
  viability, T/C: 78.3%
Second compound 0.949 µM, first compound 0.001 µM
  viability, T/C: 64.9%
[13]
  viability, T/C: 67.6%
[14]
  viability, T/C: 60.7%
[15]
  viability, T/C: 60.2%
[16]
  viability, T/C: 61.5%
Second compound 3 µM, first compound 0.000316 µM
  viability, T/C: 76.9%
Second compound 3 µM, first compound 0.001 µM
  viability, T/C: 65.9%
[17]
  viability, T/C: 62.4%
[18]
  viability, T/C: 59.2%
[19]
  viability, T/C: 55.3%
[20]
  viability, T/C: 67.5%
